# Laboratory results from PubChem BioAssay (NCI).
#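 Protocol summary: plate cells (96-well), add compound at 5 concentrations, incubate 48 h, interpolate endpoints linearly. The concentration for 50% growth inhibition is given as GI50. TGI: total growth inhibition.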
# Tested on: MDA-MB-468 breast
# Assay: NCI anticancer screen, dose series, 48 h
Structure (SMILES),GI50 [µM],TGI [µM]
CCCCCCCCC/C(=N\NC(=O)c1ccncc1)c1ccc(O)c(O)c1O,0.161,1.11
Cn1cc(C2=C(c3c4n(c5ccccc35)CCC(CN)C4)C(=O)NC2=O)c2ccccc21 (stereo not drawn),2.91,6.89
COc1cc2ncnc(Nc3cccc(Cl)c3F)c2cc1OC(=O)N1CCN(C)C[C@H]1C,0.0607,1.27
CC(=O)Nc1c(I)c(NC(C)=O)c(I)c(C(=O)O)c1I,> 100,> 100
O=[N+]([O-])c1ccc(C2CC(c3ccccc3)=Nc3ccccc3S2)cc1 (stereo not drawn),> 100,> 100
N=C(N)SCc1c2ccccc2c(CSC(=N)N)c2ccccc12,2.32,9.81
O=C(/C(=C/c1ccc([N+](=O)[O-])cc1)SCc1ccc(Cl)cc1)c1ccc(F)cc1,2.87,9.22
COc1cc(/C(=C2/O[C@@H]([C@H]3COC(C)(C)O3)[C@H]3OC(C)(C)O[C@@H]23)c2ccc3ccccc3c2)cc(OC)c1OC,4.02,21.1
CCOC(=O)Nc1nc2ccc(Br)cc2s1,> 50,> 50
Clc1ccc(Nc2ccnc(N3CCN(c4ccnc5cc(Cl)ccc45)CC3)n2)cc1,2.08,5.56
O=C(Nc1ccc(-n2cc(-c3ccncc3)c(-c3ccc(O)c(Cl)c3)n2)cc1)Nc1ccc(Cl)c(C(F)(F)F)c1,2.96,13.1
CC/C(=C(/c1ccc(O)cc1)c1ccc(OCCN)cc1)c1ccccc1,1.57,3.94
Cc1nc(-c2nc(-c3ccc(OC(F)(F)F)cc3)no2)nn1Cc1cccc(N2CCC(S(C)(=O)=O)CC2)c1,< 0.01,3.9
S=C(NCCNC(=S)[S][Sn]([c]1ccccc1)([c]1ccccc1)[c]1ccccc1)[S][Sn]([c]1ccccc1)([c]1ccccc1)[c]1ccccc1,0.0129,0.0419
CN(C)CCCCC(C(=O)CBr)(c1ccccc1)c1ccccc1,1.09,2.89
CCCCCCn1c(-c2ccc(C(=O)O/N=C(\N)c3ccc4ccccc4c3)cc2)nc(-c2ccccc2)c1-c1ccccc1,22.2,97.7
C[C@@H](NC(=O)/C(C#N)=C/c1ccc([N+](=O)[O-])cc1)c1ccccc1,1.74,3.37
Cc1ccc2c(n1)C(=O)C(Cl)=C(Nc1ccccc1C(=O)OC(C)(C)C)C2=O,1.47,3.25
COc1cc(C(=O)N2CCN(c3ccccc3)CC2)c2ccccc2n1,0.0318,0.211
COc1cc2c(cc1Cc1cccc(Cl)c1F)c(=O)c(C(=O)O)cn2[C@@H](CO)C(C)C,3.26,9.32
COc1cccc(/C=N/NC(=O)c2ccccc2N2CCCC2)c1O,3.33,> 100
Cn1nc(C(F)(F)F)cc1-c1c[nH]c(OCc2ccc(Cl)cc2)c(-c2ccc(Cl)c(C(F)(F)F)c2)c1=O,0.94,4.73
COc1cc2c(c(OC)c1OC)-c1ccc(OC)c(=O)cc1[C@@H](NC(C)=O)CC2,< 0.01,> 100
Cc1cc(O)cc(C)c1/C=C/c1cncc(C(N)=O)c1,0.749,4.62
